From the NIST ThermoML archive (doi:10.1016/j.fluid.2008.10.008)
“And” between values parts separate entries of the source, which are not always exact repeats. Equal values may be shown once. Numbers after ± are expanded uncertainties.

Experiment: activity coefficient (dimensionless); of the first substance listed, at infinite dilution; xn = mol fraction of the nth substance listed
Conditions: 101 kPa, Liquid, Chromatography, x1 = 0

SMILES | activity coefficient (328.15 K) | activity coefficient (333.15 K) | activity coefficient (338.15 K) | activity coefficient (343.15 K)
c1ccccc1 [benzene] + CCCC[n+]1ccc(C)cc1.Cc1ccc(S(=O)(=O)[O-])cc1 | 4.01 ± 0.18 | 3.92 and 4 | 3.97 and 3.95 | 3.94 and 3.97
C#CCCCCCC [1-octyne] + CCCC[n+]1ccc(C)cc1.Cc1ccc(S(=O)(=O)[O-])cc1 | 8.01 and 8.11 | 8.45 and 8.13 | 8.27 and 8.18 | 8.56 and 8.3
C=CCCC [1-pentene] + CCCC[n+]1ccc(C)cc1.Cc1ccc(S(=O)(=O)[O-])cc1 | 16.8 and 15.3 | 16.1 and 14.8 | 15.3 and 15.5 | 15.7 and 14.2
C#CCCCCC [1-heptyne] + CCCC[n+]1ccc(C)cc1.Cc1ccc(S(=O)(=O)[O-])cc1 | 5.76 and 5.88 | 6.03 and 5.9 | 6.01 and 5.98 | 6.14 and 6
CCCCCCCC [octane] + CCCC[n+]1ccc(C)cc1.Cc1ccc(S(=O)(=O)[O-])cc1 | 71.6 and 75.8 | 71.3 and 70.6 | 67.8 and 68.4 | 68.7 and 68.9
C=CCCCCCC [oct-1-ene] + CCCC[n+]1ccc(C)cc1.Cc1ccc(S(=O)(=O)[O-])cc1 | 39.7 and 40.6 | 39.7 and 39.2 | 38.7 and 38.9 | 37.8 and 38
C#CCCC [1-pentyne] + CCCC[n+]1ccc(C)cc1.Cc1ccc(S(=O)(=O)[O-])cc1 | 3.05 and 3.09 | 3.37 and 3.06 | 3.36 and 3.2 | 3.38 and 3.41
CCCCCCC [heptane] + CCCC[n+]1ccc(C)cc1.Cc1ccc(S(=O)(=O)[O-])cc1 | 53 and 55 | 51.8 and 51 | 50.6 and 50.4 | 49.3 and 49.5
CCO [ethanol] + CCCC[n+]1ccc(C)cc1.Cc1ccc(S(=O)(=O)[O-])cc1 | 0.905 and 0.893 | 0.895 and 0.881 | 0.88 and 0.87 | 0.871 and 0.863
CCCCCC [hexane] + CCCC[n+]1ccc(C)cc1.Cc1ccc(S(=O)(=O)[O-])cc1 | 37.3 and 38.9 | 37.2 ± 1.7 | 36 ± 1.7 | 36.9 and 37.1
C=CCCCCC [1-heptene] + CCCC[n+]1ccc(C)cc1.Cc1ccc(S(=O)(=O)[O-])cc1 | 28.7 and 29.2 | 29.5 and 28.2 | 27.2 and 27.9 | 28 and 27.5
C1CCCC1 [cyclopentane] + CCCC[n+]1ccc(C)cc1.Cc1ccc(S(=O)(=O)[O-])cc1 | 13.6 and 12.5 | 12.4 and 12.8 | 11.7 and 12 | 11.9 and 11.7
C1CCCCCC1 [cycloheptane] + CCCC[n+]1ccc(C)cc1.Cc1ccc(S(=O)(=O)[O-])cc1 | 21.2 and 23.4 | 20.8 ± 1 | 20 ± 0.9 | 19.8 and 19.9
C#CCCCC [1-hexyne] + CCCC[n+]1ccc(C)cc1.Cc1ccc(S(=O)(=O)[O-])cc1 | 4.25 and 4.19 | 4.43 and 4.26 | 4.37 and 4.61 | 4.8 and 4.36
CCCCC [pentane] + CCCC[n+]1ccc(C)cc1.Cc1ccc(S(=O)(=O)[O-])cc1 | 27.6 and 28.7 | 27.5 and 27.8 | 27.7 and 27.8 | 27.3 and 27.4
C1CCCCCCC1 [cyclooctane] + CCCC[n+]1ccc(C)cc1.Cc1ccc(S(=O)(=O)[O-])cc1 | 26.2 and 28.4 | 25.2 and 25 | 23.7 and 24.6 | 23.6 and 24.5
C=CCCCC [hex-1-ene] + CCCC[n+]1ccc(C)cc1.Cc1ccc(S(=O)(=O)[O-])cc1 | 21.2 and 21.1 | 20.7 and 20.1 | 20.3 and 19.5 | 20 and 20.1
C1CCCCC1 [cyclohexane] + CCCC[n+]1ccc(C)cc1.Cc1ccc(S(=O)(=O)[O-])cc1 | 18.6 and 20.6 | 18 and 18.1 | 17.5 ± 0.8 | 16.9 and 17
CO [methanol] + CCCC[n+]1ccc(C)cc1.Cc1ccc(S(=O)(=O)[O-])cc1 | 0.555 and 0.542 | 0.545 and 0.542 | 0.541 and 0.536 | 0.548 and 0.527
